Drawing on patent US20240376090A1, “ISOXAZOLE DERIVATIVES AS MODULATORS OF THE 5-HT2A SEROTONIN RECEPTOR USEFUL FOR THE TREATMENT OF DISORDERED RELATED THERETO” (Arena Pharmaceuticals, Inc., priority 2020, published 2024), this text covers Ki and IC50 for 26 compounds.

Experiment [1] deals with T1, 5-HT2A receptor (Homo sapiens (Human), UniProt P28223). Description: Radioligand binding assay ([3H]5-HT competition), 5-HT2A. As to conditions: [3H]5-HT radioligand, membranes of HEK293 cells expressing recombinant 5-HT2A; Ki from IC50 by Cheng-Prusoff; read-out: 5-HT2A serotonin binding Ki value.
T1 sequence (P28223 whole entry): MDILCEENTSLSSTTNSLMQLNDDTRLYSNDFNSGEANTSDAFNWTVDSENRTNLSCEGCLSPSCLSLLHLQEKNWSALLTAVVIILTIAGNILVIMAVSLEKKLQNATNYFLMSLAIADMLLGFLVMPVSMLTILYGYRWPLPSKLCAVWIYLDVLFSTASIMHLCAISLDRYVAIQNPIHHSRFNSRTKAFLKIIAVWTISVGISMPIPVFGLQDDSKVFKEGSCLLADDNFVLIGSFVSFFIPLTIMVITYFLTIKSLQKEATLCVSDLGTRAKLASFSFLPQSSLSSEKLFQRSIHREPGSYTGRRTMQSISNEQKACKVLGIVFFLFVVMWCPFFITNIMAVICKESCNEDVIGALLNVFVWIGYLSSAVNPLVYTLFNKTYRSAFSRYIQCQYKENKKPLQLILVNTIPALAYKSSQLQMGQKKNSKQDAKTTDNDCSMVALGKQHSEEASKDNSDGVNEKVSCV
The target of experiment [2] is T1, 5-HT2A receptor. Description: HTRF IP-One antagonist assay, 5-HT2A. The class given is cell-based. As to conditions: HEK293 cells stably expressing recombinant human receptor; IP accumulation with 80 nM 5-HT. As to the method:
(§1) HEK293 cells stably expressing 5-HT2 receptors were generated using standard procedures. Cells were dilution cloned and clonal cell lines stably expressing the receptors at low levels were selected for pharmacology studies. In radioligand binding studies using a variety of radiolabeled probes, receptor densities in the 2A, 2B and 2C cell lines were estimated to be 50-70, 150-200, and 10-20 fmol/mg, respectively.
(§2) Inositol phosphate accumulation assays were performed using the HTRF IP-One assay system developed by Cisbio and generally followed the manufacturer's instructions. Briefly, HEK293 cells stably expressing recombinant human receptors were harvested and resuspended in phenol-red free OptiMEM (ThermoFisher), plated into 384-well assay plates (Perkin Elmer, ProxiPlate-Plus® Cat #6008280) at 10,000 cells/well in a volume of 10 μL/well, and incubated overnight at 37° C., 5% CO2. Test compounds were solubilized and serially diluted in DMSO, and then diluted into Assay Buffer (Tris HCl 20 mM, NaCl 150 mM, LiCl 40 mM, pargyline 25 μM, pH 8) containing 80 nM 5-HT. Test compounds were added to the cells (4 μL/well addition, maximal final assay concentration typically 10 μM) and plates, incubated for 2 hrs at 37° C./5% CO2 and then removed from the incubator and allowed to cool to room temperature for 30 minutes prior to addition of IP-One detection reagents. IP-One detection reagents (6 μL/well) were added and plates incubated for 1 hr at room temperature before reading on an HTRF compatible reader such as a Perkin Elmer EnVision® or BMG PheraStar®. Dose-response experiments utilized 10-point curves, typically starting at 10 μM, with 5-fold serial dilutions. Experiments were performed with triplicate data points and independent replicate experiments were performed to ensure data consistency.

Another experiment addresses 5-HT2B receptor (Homo sapiens (Human), UniProt P41595). Briefly: HTRF IP-One antagonist assay, 5-HT2B. The class given is cell-based. Conditions: HEK293 cells stably expressing recombinant human receptor; IP accumulation with 80 nM 5-HT. As to the method:
as §1, §2

In a further experiment the target is 5-HT2C receptor (Homo sapiens (Human), UniProt P28335). Description: HTRF IP-One antagonist assay, 5-HT2C. The format is cell-based. As to conditions: HEK293 cells stably expressing recombinant human receptor; IP accumulation with 80 nM 5-HT. The procedure: as §1, §2
Sequence of 5-HT2C receptor (P28335 33-458): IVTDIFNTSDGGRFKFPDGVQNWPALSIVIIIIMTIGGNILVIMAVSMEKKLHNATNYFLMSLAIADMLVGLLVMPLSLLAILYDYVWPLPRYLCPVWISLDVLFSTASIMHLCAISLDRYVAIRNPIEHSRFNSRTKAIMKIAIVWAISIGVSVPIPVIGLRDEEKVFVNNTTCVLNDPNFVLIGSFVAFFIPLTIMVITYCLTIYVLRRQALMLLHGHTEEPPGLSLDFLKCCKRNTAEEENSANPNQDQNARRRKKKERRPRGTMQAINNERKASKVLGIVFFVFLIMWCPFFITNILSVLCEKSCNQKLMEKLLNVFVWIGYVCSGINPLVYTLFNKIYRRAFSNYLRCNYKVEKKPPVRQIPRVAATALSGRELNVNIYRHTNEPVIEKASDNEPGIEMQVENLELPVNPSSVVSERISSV

Sequence of 5-HT2B receptor (P41595 whole entry): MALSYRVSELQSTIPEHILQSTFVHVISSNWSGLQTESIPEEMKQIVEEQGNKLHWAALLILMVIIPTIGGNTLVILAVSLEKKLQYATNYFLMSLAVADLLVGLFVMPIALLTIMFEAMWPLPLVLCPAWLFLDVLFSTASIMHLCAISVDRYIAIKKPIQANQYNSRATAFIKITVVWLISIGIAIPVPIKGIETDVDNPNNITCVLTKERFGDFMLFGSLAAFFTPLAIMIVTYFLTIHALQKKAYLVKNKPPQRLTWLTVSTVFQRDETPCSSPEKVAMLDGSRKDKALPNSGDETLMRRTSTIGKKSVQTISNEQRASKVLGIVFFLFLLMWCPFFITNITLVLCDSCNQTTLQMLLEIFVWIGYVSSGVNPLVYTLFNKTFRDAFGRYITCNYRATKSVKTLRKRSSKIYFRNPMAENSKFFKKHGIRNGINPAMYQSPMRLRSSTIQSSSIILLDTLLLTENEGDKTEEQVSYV

With `Cc1noc(C)c1-c1cc(NC(=O)C2(F)CC2)ccc1OCCN1CCCC1` [Compound 113, N-[3-(3,5-dimethylisoxazol-4-yl)-4-(2-pyrrolidin-1-ylethoxy)phenyl]-1-fluoro-cyclopropanecarboxamide], the Ki at 5-HT2A receptor [1] came to 2.66 nM. For the same compound, the half-maximal inhibitory concentration (IC50) at 5-HT2A receptor [2] is 8.95 nM; on 5-HT2B receptor, at least 100000 nM; at 5-HT2C receptor it was at least 100000 nM.

With `Cc1noc(C)c1-c1cc(NC(=O)c2c(F)cnn2C)ccc1OCCN1CCCC1` [Compound 114, N-(3-(3,5-dimethylisoxazol-4-yl)-4-(2-(pyrrolidin-1-yl)ethoxy)phenyl)-4-fluoro-1-methyl-1H-pyrazole-5-carboxamide], the Ki on 5-HT2A receptor [1] came to 2.6 nM. Moreover, the values for the 50% inhibitory concentration (IC50) at 5-HT2A receptor [2], at 5-HT2B receptor and at 5-HT2C receptor were 8.69 nM, at least 100000 nM and at least 100000 nM, respectively.

With `Cc1noc(C)c1-c1cc(NC(=O)C2(F)CC2)ccc1OCCN1CCC1` [Compound 117, N-[4-[2-(azetidin-1-yl)ethoxy]-3-(3,5-dimethylisoxazol-4-yl)phenyl]-1-fluoro-cyclopropanecarboxamide], the inhibitory constant (Ki) at 5-HT2A receptor [1] is 10.3 nM. Further, the IC50 is 20.6 nM at 5-HT2A receptor [2], at least 100000 nM on 5-HT2B receptor and at least 100000 nM on 5-HT2C receptor.

Take `Cc1ncsc1C(=O)Nc1ccc(OCCN2CCC2)c(-c2c(C)noc2C)c1` [Compound 119, N-(4-(2-(azetidin-1-yl)ethoxy)-3-(3,5-dimethylisoxazol-4-yl)phenyl)-4-methylthiazole-5-carboxamide]: the Ki at 5-HT2A receptor [1] came to 9.58 nM. Also, the IC50 on 5-HT2A receptor [2] is 13 nM; at 5-HT2B receptor it was at least 100000 nM; on 5-HT2C receptor it was at least 100000 nM.

In the case of `Cc1noc(C)c1-c1cc(NC(=O)c2ccc(F)cc2)ccc1OCCN1CCC1` [Compound 121, N-(4-(2-(azetidin-1-yl)ethoxy)-3-(3,5-dimethylisoxazol-4-yl)phenyl)-4-fluorobenzamide], the inhibition constant Ki at 5-HT2A receptor [1] is 4.67 nM. Also, on 5-HT2A receptor [2], the 50% inhibitory concentration (IC50) was found to be 29.7 nM.

Regarding `COc1cccc(C(=O)Nc2ccc(OCCN3CCC3)c(-c3c(C)noc3C)c2)c1` [Compound 122, N-(4-(2-(azetidin-1-yl)ethoxy)-3-(3,5-dimethylisoxazol-4-yl)phenyl)-3-methoxybenzamide], the inhibition constant Ki on 5-HT2A receptor [1] was 2.7 nM. The IC50 at 5-HT2A receptor [2] is 8.92 nM.

As to `Cc1noc(C)c1-c1cc(NC(=O)Cc2cccc(F)c2)ccc1OCCN1CCC1` [Compound 125, N-(4-(2-(azetidin-1-yl)ethoxy)-3-(3,5-dimethylisoxazol-4-yl)phenyl)-2-(3-fluorophenyl)acetamide], the Ki at 5-HT2A receptor [1] was 4.5 nM. The IC50 is 38.2 nM on 5-HT2A receptor [2] and at least 100000 nM on 5-HT2B receptor.

On to `Cc1noc(C)c1-c1cc(NC(=O)C2CC2)ccc1OCCN1CCC2(CCC(=O)O2)CC1` [Compound 141, N-(3-(3,5-dimethylisoxazol-4-yl)-4-(2-(2-oxo-1-oxa-8-azaspiro[4.5]decan-8-yl)ethoxy)phenyl)cyclopropanecarboxamide], for which, at 5-HT2A receptor [1], the Ki amounted to 9.47 nM. The IC50 at 5-HT2A receptor [2] was 49.7 nM; on 5-HT2B receptor, at least 100000 nM; at 5-HT2C receptor, at least 100000 nM.

Turning to `Cc1noc(C)c1-c1cc(NC(=O)C2CC2)ccc1OC1CNC1` [Compound 172, N-(4-(azetidin-3-yloxy)-3-(3,5-dimethylisoxazol-4-yl)phenyl)cyclopropanecarboxamide], the Ki at 5-HT2A receptor [1] was determined as 6.5 nM. In addition, the half-inhibitory concentration (IC50) at 5-HT2A receptor [2] was 109 nM; on 5-HT2B receptor, at least 100000 nM.

For `Cc1noc(C)c1-c1cc(NC(=O)[C@@H]2C[C@@H]2F)ccc1OC[C@H]1CCCCN1` [Compound 192, (1S,2S)—N-(3-(3,5-dimethylisoxazol-4-yl)-4-(((R)-piperidin-2-yl)methoxy)phenyl)-2-fluorocyclopropane-1-carboxamide], on 5-HT2A receptor [1], the Ki turned out to be 4.91 nM. Further, the half-maximal inhibitory concentration (IC50) on 5-HT2A receptor [2] was 31.1 nM; on 5-HT2B receptor, at least 100000 nM.

As to `Cc1noc(C)c1-c1cc(NC(=O)Cc2nccs2)ccc1OC[C@H]1CCCCN1` [Compound 213, (R)—N-(3-(3,5-dimethylisoxazol-4-yl)-4-(piperidin-2-ylmethoxy)phenyl)-2-(thiazol-2-yl)acetamide], the inhibitory constant (Ki) at 5-HT2A receptor [1] is 4.73 nM.

As to `Cc1cnsc1C(=O)Nc1ccc(OC[C@H]2CCCCN2)c(-c2c(C)noc2C)c1` [Compound 214, (R)—N-(3-(3,5-dimethylisoxazol-4-yl)-4-(piperidin-2-ylmethoxy)phenyl)-4-methylisothiazole-5-carboxamide], the inhibition constant (Ki) at 5-HT2A receptor [1] turned out to be 3.05 nM.

Consider `Cc1nnsc1C(=O)Nc1ccc(OC[C@H]2CCCCN2)c(-c2c(C)noc2C)c1` [Compound 215, (R)—N-(3-(3,5-dimethylisoxazol-4-yl)-4-(piperidin-2-ylmethoxy)phenyl)-4-methyl-1,2,3-thiadiazole-5-carboxamide], for which the Ki on 5-HT2A receptor [1] was 18.4 nM.

With `Cc1nc(C(=O)Nc2ccc(OC[C@H]3CCCCN3)c(-c3c(C)noc3C)c2)c(C)o1` [Compound 216, (R)—N-(3-(3,5-dimethylisoxazol-4-yl)-4-(piperidin-2-ylmethoxy)phenyl)-2,5-dimethyloxazole-4-carboxamide], the Ki at 5-HT2A receptor [1] is 298 nM.

As to `Cc1noc(C)c1-c1cc(NC(=O)C2(F)CC2)ccc1OC[C@H]1CCCCN1` [Compound 217, (R)—N-(3-(3,5-dimethylisoxazol-4-yl)-4-(piperidin-2-ylmethoxy)phenyl)-1-fluorocyclopropane-1-carboxamide], the Ki at 5-HT2A receptor [1] is 1.21 nM. In addition, the 50% inhibitory concentration (IC50) at 5-HT2A receptor [2] is 5.19 nM; on 5-HT2B receptor, at least 100000 nM.

In the case of `COc1ccc(CC(=O)Nc2ccc(OC[C@H]3CCCCN3)c(-c3c(C)noc3C)c2)cc1` [Compound 224, (R)—N-(3-(3,5-dimethylisoxazol-4-yl)-4-(piperidin-2-ylmethoxy)phenyl)-2-(4-methoxyphenyl)acetamide], the Ki at 5-HT2A receptor [1] was found to be 1.53 nM.

Turning to `Cc1ncsc1CC(=O)Nc1ccc(OC[C@H]2CCCCN2)c(-c2c(C)noc2C)c1` [Compound 225, (R)—N-(3-(3,5-dimethylisoxazol-4-yl)-4-(piperidin-2-ylmethoxy)phenyl)-2-(4-methylthiazol-5-yl)acetamide], the inhibition constant Ki at 5-HT2A receptor [1] is 3.18 nM. For the same compound, the results for the concentration for half-maximal inhibition (IC50) at 5-HT2A receptor [2] and at 5-HT2B receptor were 19.7 nM and at least 100000 nM, respectively.

As for `Cc1noc(C)c1-c1cc(NC(=O)Cc2ccc(F)cn2)ccc1OC[C@H]1CCCCN1` [Compound 227, (R)—N-(3-(3,5-dimethylisoxazol-4-yl)-4-(piperidin-2-ylmethoxy)phenyl)-2-(5-fluoropyridin-2-yl)acetamide], the Ki at 5-HT2A receptor [1] came out at 91.6 nM.

Regarding `COC1(CC(=O)Nc2ccc(OC[C@H]3CCCCN3)c(-c3c(C)noc3C)c2)CC1` [Compound 228, (R)—N-(3-(3,5-dimethylisoxazol-4-yl)-4-(piperidin-2-ylmethoxy)phenyl)-2-(1-methoxycyclopropyl)acetamide], at 5-HT2A receptor [1], the inhibition constant (Ki) worked out at 66.4 nM.

In the case of `Cc1noc(C)c1-c1cc(NC(=O)c2c(F)cnn2C)ccc1OC[C@H]1CCCCN1` [Compound 230, (R)—N-(3-(3,5-dimethylisoxazol-4-yl)-4-(piperidin-2-ylmethoxy)phenyl)-4-fluoro-1-methyl-1H-pyrazole-5-carboxamide], the inhibition constant Ki on 5-HT2A receptor [1] was found to be 6.17 nM. Besides, the IC50 at 5-HT2A receptor [2] was 6.17 nM; on 5-HT2B receptor, at least 100000 nM.

With `Cc1nc(C(C)C)sc1C(=O)Nc1ccc(OC[C@H]2CCCCN2)c(-c2c(C)noc2C)c1` [Compound 231, (R)—N-(3-(3,5-dimethylisoxazol-4-yl)-4-(piperidin-2-ylmethoxy)phenyl)-2-isopropyl-4-methylthiazole-5-carboxamide], on 5-HT2A receptor [1], the Ki is 16.8 nM.

As to `Cc1noc(C)c1-c1cc(NC(=O)C2(F)CC2)ccc1O[C@@H]1CCCNC1` [Compound 235, (R)—N-(3-(3,5-dimethylisoxazol-4-yl)-4-(piperidin-3-yloxy)phenyl)-1-fluorocyclopropane-1-carboxamide], on 5-HT2A receptor [1], the Ki was 45.2 nM.

`Cc1noc(C)c1-c1cc(N(C)C(=O)C2CC2)ccc1OC[C@H]1CCCCN1` [Compound 236, N-[3-(3,5-dimethylisoxazol-4-yl)-4-[[(2R)-2-piperidyl]methoxy]phenyl]-N-methyl-cyclopropanecarboxamide]: the Ki at 5-HT2A receptor [1] was 63900 nM.

Consider `COCCNCCOc1ccc(NC(=O)C2(F)CC2)cc1-c1c(C)noc1C` [Compound 237, N-[3-(3,5-dimethylisoxazol-4-yl)-4-[2-(2-methoxyethylamino)ethoxy]phenyl]-1-fluoro-cyclopropanecarboxamide], for which the Ki on 5-HT2A receptor [1] is 1.14 nM.

In the case of `Cc1noc(C)c1-c1cc(NC(=O)C2(F)CC2)ccc1O[C@H]1CCNC1` [Compound 239, (S)—N-(3-(3,5-dimethylisoxazol-4-yl)-4-(pyrrolidin-3-yloxy)phenyl)-1-fluorocyclopropane-1-carboxamide], the inhibition constant Ki at 5-HT2A receptor [1] was 59.4 nM.

In the case of “N-(4-(2-(azetidin-1-yl)ethoxy)-3-(3,5-dimethylisoxazol-4-yl)phenyl)-2-(5-fluoropyridin-2-yl)acetamide [Compound 129]”, the inhibition constant Ki at 5-HT2A receptor [1] was 182 nM.
